From PubChem BioAssay AID2253 (Southern Research Specialized Biocontainment Screening …, 2010)
pEC50: −log10 of the molar value.

Tested on: THP-1 viability, CellTiter-Glo luminescence, 72 h
Assay: human monocytic cell viability reduction – S. typhimurium screen hits, cytotoxicity control for Salmonella PhoP regulon inhibitors, dose response (AID 2253)

SMILES | pEC50
Nc1ccc2c(c1)C(=O)C(=O)c1ccccc1-2 | 5.65
O=C1c2ccccc2-c2onc3ccc(NCc4ccco4)c1c23 | 4.75
Cc1ccc(Nc2nc(N)c3ccccc3n2)cc1Cl | 4.79
Clc1ccc(C[n+]2cc(-c3ccc(Cl)cc3)n3c2CCC3)cc1 | 4.75
Clc1ccc(Cl)c(OCCCCNCc2ccccc2)c1 | 4.56
O=S(=O)(/N=C(/Nc1cccc2ccccc12)c1ccccc1)c1cccs1 | 4.54
O=C(O)C1Nc2c(O)cccc2C2C=CCC12 (stereo not given) | 4.65
CCOC(=O)COc1ccccc1/C=C\[N+](=O)[O-] | 5.55
CCCn1c(NCc2c[nH]c3ccccc23)nc2ccccc21 | 4.64
c1ccc2c(C3=NNC(=NC4CC4)SC3)c[nH]c2c1 | 4.76
CCN1/C(=C/C=C/C=C/c2sc3ccccc3[n+]2CC)Sc2ccccc21 | 5.34
O=C(N/N=C/c1cn(-c2ccccc2)nc1-c1ccc(F)cc1)c1ccc2c(c1)OCO2 | 4.46
Cc1[nH]c2ccccc2c1/C=N/Nc1ccc(F)cc1F | 4.31
CCn1c(N)[n+](CC(=O)Nc2ccc(SC(F)F)cc2)c2ccccc21 | 4.87
COc1ccc(Nc2nc(-c3c[nH]c4ccccc34)cs2)cc1 | 4.81
Oc1c(C(Nc2ccccn2)c2ccccn2)ccc2cccnc12 (stereo not given) | 5.37
O=C(CN1CC(c2ccccc2)CC1=O)N/N=C/c1cc(Br)ccc1O (stereo not given) | 5.43
Oc1cccc(Nc2nc(NCC3CCCO3)c3ccccc3n2)c1 (stereo not given) | 5.65
CCCCCCCCCn1c2c(c(=N)c3c1CCC3)CCC2 | 6.38
COc1ccc(C(=O)N/N=C/c2sc3ccccc3c2O)cc1 | 5.50
Nc1nonc1-n1nnc(C(=O)N/N=C/c2cc(Br)ccc2O)c1CSC1=NCCS1 | 5.81
COc1ccc(NC(C)C(=O)Nc2ccc(C(C)(C)C)cc2)cc1Cl (stereo not given) | 4.39
Oc1ccc(CN2CCc3ccccc3C2)c2cccnc12 | 5.47
CNC[C@H](Cc1ccccc1)NC[C@@H](Cc1cccc2ccccc12)NCCc1ccc(C)cc1 | 5.32
O=[N+]([O-])c1ccc(NCCCNS(=O)(=O)c2ccccc2)c(Cl)c1 | 4.37
c1ccc(-c2cccc(-c3ccccn3)n2)nc1 | 6.35
COc1ccc(C)cc1NC(=O)C(Sc1nnc(-c2ccncc2)n1-c1ccc(Cl)cc1)c1ccccc1 (stereo not given) | 4.66

SMILES | pEC50
C/C(CC(=O)Nc1ccc(Cl)c(C(F)(F)F)c1)=N\NC(=O)c1cccc(O)c1 | 4.62
O=C1c2ccccc2C2=Nc3ccccc3SC(c3cccc(F)c3)C12 (stereo not given) | 5.05
Cc1ccc(C(=O)NNc2c3ccccc3nc3ccccc23)cc1 | 4.56
CC(C)c1ccc(C2C3CSCC=C3C(C#N)=C(N)C2(C#N)C#N)cc1 (stereo not given) | 4.40
O=c1[nH]cc(F)c(=O)[nH]1 | 5.37
CCCCCCCCCCOC(=O)Cn1c(COc2cccc(C)c2)[n+](C)c2ccccc21 | 5.36
Cc1ccc(-c2cc(C(=O)Nc3nccs3)c3ccccc3n2)o1 | 4.50
O=Cc1ccc(O)c2ncccc12 | 5.42
Cc1cc(/C=N/n2cnnc2)c(C)n1-c1ccc(OCc2ccc(F)cc2)cc1 | 4.90
Cc1ccccc1Cn1c(=N)n(CC(=O)c2ccco2)c2ccccc21 | 4.64
O=C1c2ccccc2NC(c2ccc(-c3cccc(Cl)c3)o2)N1O (stereo not given) | 4.61
C=CCNc1ncnc2c1[nH]c1ccc(C)cc12 | 4.59
O=[N+]([O-])c1ccc(O)c2ncccc12 | 5.08
Cc1ccc(C(=O)CSC2=C(C#N)C(c3ccco3)CC(=O)N2)c(C)c1 (stereo not given) | 4.47
COc1cnc(-c2ccccn2)[nH]c1=O | 4.59
N=c1n(CC(=O)c2ccc([N+](=O)[O-])cc2)c2ccccc2n1Cc1ccccc1 | 4.84
CN(C)c1ccc(/C=C/c2ccc3ccccc3[n+]2C)cc1 | 6.52
Nc1ccc(N(c2ccccc2)c2ccc(N)cc2)cc1 | 5.31
CCOc1ccc(CNc2ccc(N3CCCC3)cc2)cc1 | 4.93
C[CH2][Hg][S]c1ccccc1C(=O)O | 6.15
O=C(Nc1ccc(S(=O)(=O)N2CCCC2)cc1)c1ccc(CN2CCc3ccccc3C2)cc1 | 4.58
c1ccc2c(C3=NNC(=NC4CCCCC4)SC3)c[nH]c2c1 | 4.72
NC(=NCCc1c[nH]c2ccccc12)NC(=O)c1ccc(F)cc1 | 4.44
CN(C)CCCN(C(=O)CCc1ccccc1)c1nc2ccc(Cl)cc2s1 | 4.59
Cc1ccc(N=Nc2ccc(O)c(/C=N\NC(=O)c3ccc(N)cc3)c2)cc1C | 5.48
C/C(CC(=O)Nc1ccc(Cl)c(C(F)(F)F)c1)=N\NC(=O)c1ccccc1O | 4.69
O=[N+]([O-])c1ccc(Sc2nc3ccccc3o2)c([N+](=O)[O-])c1 | 5.71

SMILES | pEC50
CN(C)c1ccc(O)c2c1CC1CC3[C@@H](N(C)C)C(=O)C(C(N)=O)=C(O)[C@]3(O)C(=O)C1=C2O (stereo not given in full) | 4.43
O=[N+]([O-])c1cc(Cl)c(O)c2ncccc12 | 4.82
Cc1ccc(C(C[N+](=O)[O-])c2c(-c3ccccc3O)[nH][nH]c2=O)cc1 (stereo not given) | 4.56
CN1CCc2c(sc(NC(=O)c3ccc([N+](=O)[O-])o3)c2C(N)=O)C1 | 6.21
O=C(Nc1ccccc1)Nc1ccc(Cl)c([N+](=O)[O-])c1 | 4.85
c1ccc(CNc2c3c(nc4ccccc24)CCC3)cc1 | 4.95
CCCCCCCCCC[n+]1cccc2c3ccccc3ccc21 | 6.22
Oc1ccc(Br)cc1-c1nc2cnccn2c1NC1CCCCC1 | 4.33
Oc1c(Cl)cc(Cl)c2cccnc12 | 4.89
NC1=NC[C@H](Cc2ccc(O)cc2)N1CCCCC1CCCCC1 | 5.58
COc1ccc2[nH]c3c(C)c4ccncc4c(C)c3c2c1 | 5.90
O=C(NCCN1CCOCC1)c1ccc2ccccc2c1 | > 7.00
O=c1c(Cl)c(Cl)cnn1Cc1ccccc1Cl | 5.53
CC(C)CCNCC(O)CON=C1c2ccccc2-c2ccccc21 (stereo not given) | 4.99
O=c1[nH]c(NCc2ccco2)nnc1Cc1ccccc1Cl | 5.18
NCC12CC3CC(C1)CC(c1ccc(Br)cc1)(C3)C2 | 5.08
CC(C(=O)NC1CCS(=O)(=O)C1)N1C(=O)/C(=C/c2ccc(Cl)cc2)SC1=S (stereo not given) | 4.31
COc1cc([N+](=O)[O-])cc(/C=N\NC(=O)C2COc3ccccc3O2)c1O (stereo not given) | 4.71
Clc1ccc(OCCCNCc2ccccc2)c(Br)c1 | 4.94
CCn1c2ccccc2c2cc(N)ccc21 | 4.79
Cc1[nH]n(-c2ncc(-c3ccc(Cl)cc3)s2)c(=O)c1C(c1ccc(Cl)cc1)C(C#N)C#N (stereo not given) | 4.35
O=C(N/N=C/c1cc([N+](=O)[O-])ccc1O)c1ccncc1 | 4.82
Cc1ccc(S(=O)(=O)/N=C2/C=C(Sc3ncn[nH]3)C(=O)c3ccccc32)cc1 | 5.67
Cc1ccc2[nH]c3c(NCc4ccccc4)ncnc3c2c1 | 4.77
Cc1ccc(S(=O)(=O)N(CC(=O)N=Nc2c(O)[nH]c3ccccc23)c2ccc(C)c(C)c2)cc1 | 4.91
Cc1ccc2nc(C)c(CN3CCN(c4ccc([N+](=O)[O-])cc4Cl)CC3)n2c1 | 4.70
